These results are taken from article PMC12131194, “Rational design, synthesis, and evaluation of novel polypharmacological compounds targeting NaV1.5, KV1.5, and K2P channels for atrial fibrillation” (The Journal of Biological Chemistry, 2025).

This assay has as its system human atrial cardiomyocytes from patients with sinus rhythm (SR). Description: Patch-clamp action potential recordings, atrial cardiomyocytes of sinus rhythm patients. The assay is classed as cell-based. How it is done:
A total of 10 patients with sinus rhythm (SR) (N = 5) or atrial fibrillation (AF) (N = 5) undergoing open heart surgery for coronary artery bypass grafting, heart valve replacement or heart transplantation were included in the study (Table S7). A written informed consent was given by all patients. The study protocol involving human tissue samples was approved by the responsible Ethics Committee of the Medical Faculty of Heidelberg University (Germany; S-017/2013) and was conducted in accordance with the 1964 Declaration of Helsinki.
The right atrial human tissue samples were transported in chilled Ca^2+-free solution (100 mM NaCl, 10 mM KCl, 1.2 mM KH2PO4, 5 mM MgSO4, 50 mM taurine, 5 mM 3-(N-morpholino)propanesulfonic acid (MOPS), 30 mM 2,3-butanedione monoxime and 20 mM glucose, pH 7.0 with NaOH). After dissection into small chunks, the samples were rinsed for 5 minutes with calcium-free Tyrode's solution, which was oxygenated with 100% O2 at 37 °C. The samples were then digested with collagenase type I (288 U/ml; Worthington) and protease type XXIV (5 mg/ml; Sigma-Aldrich, Steinheim, Germany) for 10 to 15 min, followed by an increase in calcium concentration to 0.2 mM. After an additional 35 min of agitation in protease-free solution, rod-shaped single cardiomyocytes were harvested. The suspension was centrifuged, and the cells were resuspended in storage (“Kraftbrühe”, KB) medium (20 mM KCl, 10 mM KH2PO4, 25 mM glucose, 40 mM D-Mannitol, 70 mM K glutamate, 10 mM β-hydroxybutyrate, 20 mM taurine, 10 mM ethylene glycol tetraacetic acid (EGTA), and 1% albumin) until usage in patch-clamp experiments.
Patch-clamp glass pipettes were fabricated from borosilicate glass (1B120F-4; World Precision Instruments). After back-filling with patch-clamp internal solution (134 mM K gluconate, 6 mM NaCl, 1.2 mM MgCl2, 1 mM Mg-ATP, 10 mM HEPES, pH 7.2 with KOH), tip resistances ranged from 5 to 10 MΩ. All experiments were carried out at room temperature under constant superfusion with patch-clamp extracellular solution containing 137 mM NaCl, 5.4 mM KCl, 1 mM MgCl2, 2 mM CaCl2, 10 mM HEPES, 10 mM glucose (pH 7.3 with NaOH). AP-recordings were performed in current clamp mode: The holding current was adjusted such that the cell’s resting membrane potential was approximately −70 mV at baseline. APs were induced by short (5 ms) depolarizing current pulses at a rate of 0.5 Hz. Data was not adjusted for potential differences caused by liquid junctions, and no leak subtraction was performed.
Data acquisition and analysis were performed using the pCLAMP10 software (Axon Instruments) and statistical analysis was done using Prism 8 (GraphPad Software). Data is presented as the mean ± standard error of the mean (SEM). Statistical comparisons were made using Dunnett’s post hoc test. A p value of < 0.05 was considered significant.

Where [1] appears, read: SR, 1, 6.25 and 12.5 μM, significant at 12.5 μM (p < 0.05).

Turning to `CCCCN(CCCC)CC(=O)Nc1ccc(OC)cc1OC` [Compound 6f, 2-(dibutylamine)-N-(2,4-dimethoxiphenyl)acetamide], for the setting “SR, 6.25 μM”, the “Resting membrane potential (RMP)” value is recorded as “slight increase”. Under “SR, 1, 6.25 and 12.5 μM”, the APD50 vs baseline entry is given as “only minor effects” and the APD90 vs baseline result is listed as “only minor effects”. Further, under setting [1], the “Action potential amplitude (APA) vs baseline” value is “concentration-dependent decrease” and the “Maximal upstroke velocity (dV/dtmax) vs baseline” value is “concentration-dependent decrease”.
